Like-named read-outs stand apart in the source and are kept apart here.
Columns and labels:
[1] = Hygroscopicity study by DVS (Dynamic Vapour Sorption); type: physicochemical; conditions: for moisture content, 15% RH / moisture content, 35% RH / moisture content, 55% RH / moisture content, 75% RH: DVS, 25° C.; for variation in the moisture content: at 75% RH
Protocol: Hygroscopicity study. The hygroscopicity of cocrystals was determined by DVS (Dynamic Vapour Sorption) with a Q5000 TA instrument. This is a gravimetric technique that measures the amount of water absorbed or desorbed by a sample at different relative humidities (RH). At each RH level, the sample mass must be allowed to reach gravimetric equilibrium (or surpass the time limit) before progressing to the next humidity level. Sorption and desorption isotherms were performed at 25° C. over a range of 0-95% RH. The sample was not previously dried, but it was exposed to 0% RH until reaching a stable weight before starting the DVS cycle. This equilibration step allows the elimination of the possible adsorbed humidity from the atmosphere. The relative humidity (RH) was controlled by a mixture of wet and dry nitrogen stream. The RH was held constant until the equilibrium had been obtained (constant weight) or until the maximum time has been reached, before changing the RH to the next level.

[2] = Crystalline stability under accelerated storage conditions (40° C., 75±5 RH %), XRPD; type: physicochemical; conditions: for Stability, 1 week / Stability, 2 weeks / Stability, 3 weeks / Stability, 4 weeks: 40° C., 75±5 RH %, XRPD; for Stability under forced conditions (one week) and in 4-weeks stability assay: crystallinity, colour, aspect
Protocol: Crystalline stability study was performed under accelerated stability conditions (40° C., 75±5 RH %) for one week. A sample of each form stored on a XRPD silicon holder was exposed in a climatic chamber. It is worth noting that these conditions are very drastic because the high surface exposed to the storage conditions might favour possible crystalline conversion. The samples were periodically analysed by XRPD to observe possible transformation.
Additional crystalline stability study was performed under accelerated stability conditions (40° C., 75±5 RH %). Cocrystal samples were stored in an open vial and exposed in a climate chamber maintaining the conditions set with accuracy (40° C.-75% RH ±5 RH). These samples were analysed weekly for 1 month.
The stability of the cocrystalline forms of (1R,3S)-3-(5-cyano-4-phenyl-1,3-thiazol ylcarbamoyl) cyclopentane carboxylic acid were studied under accelerated storage conditions (40° C., 75±5 RH %) for one to four week. See results in Table 5.
After time exposure, cocrystals remained stable according to XRPD analysis. Amorphization or appearance of crystalline forms was not detected in the limit of detection of the analysis conditions.

[3] = Plasma pharmacokinetics / oral bioavailability after single IV and PO administration; type: in vivo; conditions: male SD rats; for F % (bioavailability): po 5 mg/Kg vs iv 1 mg/Kg
Protocol: The objective of this study was to investigate the plasma pharmacokinetics of differentes cocrystals obtained from (1R,3S)-3-(5-cyano-4-phenyl-1, 3-thiazol ylcarbamoyl) cyclopentane carboxylic acid, following a single intravenous (IV) and oral (PO) administration in male SD rats.
Animals were divided into two groups: Group 1 (IV: 1 mg/kg) and Group 2 (PO: 5 mg/kg). Animals in Group 1 and 2 were administered a solution of the different cocrystals of (1R,3S)-3-(5-cyano-4-phenyl-1,3-thiazol-2-ylcarbamoyl) cyclopentane carboxylic acid in normal saline. The blood samples were collected from set of three rats at each time point in labeled micro centrifuge tube containing K2EDTA solution as anticoagulant at Pre-dose, 0.083, 0.25, 0.5, 1, 2, 4, 8 and 24 hr (IV) and Pre-dose, 0.25, 0.5, 1, 2, 4, 6, 8 and 24 hr (PO). Plasma samples were separated by centrifugation of whole blood and stored below −70±10° C. until bioanalysis. All samples were processed for analysis by protein precipitation using acetonitrile and analyzed with fit-for-purpose LC-MS/MS method (LLOQ=1.00 ng/ml). Pharmacokinetic parameters were calculated using the non-compartmental analysis tool of Phoenix WinNonlin® (Version 6.3).

[4] = Comparative bioavailability assay in healthy volunteers; type: in vivo; conditions: for AUC0-t, MEAN ± SD / AUC0-t, geometric mean / AUC0-∞, MEAN ± SD / AUC0-∞, geometric mean / Cmax, MEAN ± SD / Cmax, geometric mean / tmax, median and range / Cmax / Tmax: single oral dose, Example 1 5 mg, Example 2 7.3 mg; for Cmax / Tmax: male, human, plasma, po, 5 mg; for Tmax: read-out: tmax, median and range
Protocol: Healthy volunteers in this study will be males 18 years of age or older in order to assess the comparative bioavailability of compound of Example 2 versus compound of Example 1, under fasting conditions and to investigate the effect of a high fat, high calorie meal. Compounds will be administered orally in single dose of Example 1 (5 mg) and Example 2 (7.3 mg). The study will have a randomized, open-label, four-fold crossover design.
In order to determine comparative bioavailability AUC0-t (AUC0-t: Area under the plasma concentration-time curve from time 0 h to the last measurable concentration) and Cmax (Cmax: Observed maximum plasma concentration (peak exposure)) will be determined after each administration.
16 volunteers were included in the study. […] Therefore, all the data were included in all pharmacokinetic measurements and calculations, without any adjustment.

[5] = pKa / ΔpKa of free acid and cocrystal forming compounds; type: physicochemical
Text: Cocrystals are distinguished from salts because unlike salts, the components that co-exist in the cocrystal lattice with a defined stoichiometry interact nonionically. […] If this criterion is met, the API-coformer entity should be classified as a cocrystal. (Regulatory Classification of Pharmaceutical Co-Crystals Guidance for Industry, February 2018, http://www.fda.gov/Drugs/GuidanceComplianceRegulatotyInformation/Guidances/default.htm).

[6] = Fed (high fat, high calorie meal)

## N#Cc1sc(NC(=O)[C@H]2CC[C@@H](C(=O)O)C2)nc1-c1ccccc1.NC(=O)c1cccnc1 [Example 4, cocrystal of (1R,3S)-3-(5-cyano-4-phenyl-1,3-thiazol-2-ylcarbamoyl) cyclopentane carboxylic acid and nicotinamide]
[1]
  moisture content, 15% RH: 0.029
  moisture content, 35% RH: 0.066
  moisture content, 55% RH: 0.165
  moisture content, 75% RH: 0.4584
[1]; range between 5-70% RH
  Hygroscopicity compared with the free acid: less hygroscopicity than the free acid
[2]
  Stability, 1 week: stable
  Stability, 2 weeks: stable
  Stability, 3 weeks: stable
  Stability, 4 weeks: stable
  Stability under forced conditions (one week) and in 4-weeks stability assay: no crystallinity changes, colour or any other change in the aspect were observed

## N#Cc1sc(NC(=O)[C@H]2CC[C@@H](C(=O)O)C2)nc1-c1ccccc1.O=C(O)c1cc(O)ccc1O [Example 2, cocrystal of (1R,3S)-3-(5-cyano-4-phenyl-1,3-thiazol-2-ylcarbamoyl) cyclopentane carboxylic acid and gentisic acid]
[3]; iv, 1 mg/Kg
  AUClast: 3.30455 µg·h/mL
  Clearance: 0.302 L/h/kg
[3]
  F % (bioavailability): 100%
[3]; po, 5 mg/Kg
  AUClast: 16.50248 µg·h/mL
  Cmax: 8.64228 µg/mL
[1]
  moisture content, 15% RH: 0.0079
  moisture content, 35% RH: 0.0175
  moisture content, 55% RH: 0.0398
  moisture content, 75% RH: 0.1035
  variation in the moisture content: 0.10%
[1]; usual storage conditions of drugs (<75% RH), up to 75% RH, listed as cocrystal with gentisic acid
  Hygroscopicity compared with the free acid: less hygroscopic than free acid
[1]; usual storage conditions of drugs (<75% RH), up to 75% RH, listed as gentisic acid cocrystal
  Hygroscopicity compared with the free acid: less hygroscopicity than the free acid
[2]
  Stability, 1 week: stable
  Stability, 2 weeks: stable
  Stability, 3 weeks: stable
  Stability, 4 weeks: stable
  Stability under forced conditions (one week) and in 4-weeks stability assay: no crystallinity changes, colour or any other change in the aspect were observed
[4]; Fasting
  AUC0-t, MEAN ± SD: 1138.5 ± 451.1 ng/mLxh
  AUC0-t, geometric mean: (1071.4) ng/mLxh
  AUC0-∞, MEAN ± SD: 1216.5 ± 483.3 ng/mLxh
  AUC0-∞, geometric mean: (1141.7) ng/mLxh
  Cmax, MEAN ± SD: 0.1737 ± 0.0607 µg/mL
  Cmax, geometric mean: (165.8) ng/mL
  tmax, median and range: 2.25 (1.5-5.0) h
[4]; [6]
  AUC0-t, MEAN ± SD: 599.1 ± 132.1 ng/mLxh
  AUC0-t, geometric mean: (585.9) ng/mLxh
  AUC0-∞, MEAN ± SD: 675.0 ± 158.8 ng/mLxh
  AUC0-∞, geometric mean: (659.1) ng/mLxh
  Cmax, MEAN ± SD: 0.0736 ± 0.0251 µg/mL
  Cmax, geometric mean: (69.8) ng/mL
  tmax, median and range: 7.0 (5.0-7.0) h
[4]; administered after a high fat meal
  Cmax compared with Example 1: slightly higher

## NC(=O)c1cccnc1 [Nicotinamide, 3-pyridinecarboxamide]
[5]; between the free acid (pKa 4.3) and the cocrystal forming compound
  ΔpKa: 0.9
[5]; cocrystal forming compound, read-out: pKa conjugated base
  pKa: 3.4

## N#Cc1sc(NC(=O)[C@H]2CC[C@@H](C(=O)O)C2)nc1-c1ccccc1.NC(N)=O [Example 3, cocrystal of (1R,3S)-3-(5-cyano-4-phenyl-1,3-thiazol-2-ylcarbamoyl) cyclopentane carboxylic acid and urea]
[3]; iv, 1 mg/Kg
  AUClast: 2.71455 µg·h/mL
  Clearance: 0.367 L/h/kg
[3]
  F % (bioavailability): 100%
[3]; po, 5 mg/Kg
  AUClast: 19.23803 µg·h/mL
  Cmax: 10.22747 µg/mL
[1]
  moisture content, 15% RH: 0.015
  moisture content, 35% RH: 0.0339
  moisture content, 55% RH: 0.0545
  moisture content, 75% RH: 0.0895
  variation in the moisture content: 0.08%
[1]; usual storage conditions of drugs (<75% RH), up to 75% RH, listed as cocrystal with urea
  Hygroscopicity compared with the free acid: less hygroscopic than free acid
[1]; usual storage conditions of drugs (<75% RH), up to 75% RH, listed as urea cocrystal
  Hygroscopicity compared with the free acid: less hygroscopicity than the free acid
[2]
  Stability, 1 week: stable
  Stability, 2 weeks: stable
  Stability, 3 weeks: stable
  Stability, 4 weeks: stable
  Stability under forced conditions (one week) and in 4-weeks stability assay: no crystallinity changes, colour or any other change in the aspect were observed

## N#Cc1sc(NC(=O)[C@H]2CC[C@@H](C(=O)O)C2)nc1-c1ccccc1 [Example 1, (1R,3S)-3-(5-cyano-4-phenyl-1,3-thiazol-2-ylcarbamoyl) cyclopentane carboxylic acid]
[3]
  F % (bioavailability): 47%
[3]; po, 5 mg/Kg
  AUClast: 5.20071 µg·h/mL
  Cmax: 2.012 µg/mL
[1]
  moisture content, 15% RH: 0.0168
  moisture content, 35% RH: 0.1842
  moisture content, 55% RH: 0.3008
  moisture content, 75% RH: 0.4369
  variation in the moisture content: 0.43%
[5]; free acid, read-out: pKa
  pKa: 4.3
[4]; Fasting
  AUC0-t, MEAN ± SD: 1155.0 ± 567.8 ng/mLxh
  AUC0-t, geometric mean: (1052.8) ng/mLxh
  AUC0-∞, MEAN ± SD: 1257.2 ± 661.9 ng/mLxh
  AUC0-∞, geometric mean: (1132.2) ng/mLxh
  Tmax: 2.5 h
[4]; [6]
  AUC0-t, MEAN ± SD: 588.1 ± 160.9 ng/mLxh
  AUC0-t, geometric mean: (567.9) ng/mLxh
  AUC0-∞, MEAN ± SD: 657.9 ± 191.4 ng/mLxh
  AUC0-∞, geometric mean: (632.7) ng/mLxh
  Tmax: 7 h
[4]; Fasting, read-out: Cmax, MEAN ± SD
  Cmax: 0.187 ± 0.0716 µg/mL
[4]; Fasting, read-out: Cmax, geometric mean
  Cmax: 0.176 µg/mL
[4]; Fed (high fat, high calorie meal), read-out: Cmax, MEAN ± SD
  Cmax: 0.068 µg/mL
[4]; Fed (high fat, high calorie meal), read-out: Cmax, geometric mean
  Cmax: 0.0656 µg/mL

## NC(N)=O [Urea, urea]
[5]; cocrystal forming compound
  pKa conjugated base: Not basic

## O=C(O)c1cc(O)ccc1O [Gentisic acid, 2,5-dihydroxybenzoic acid]
[5]; cocrystal forming compound
  pKa conjugated base: Not basic
